Laboratory results reported in US20170367338A1, “COMPOSITIONS AND METHODS FOR IMPROVING AGRONOMIC CHARACTERISTICS OF PLANTS” (MONSANTO TECHNOLOGY LLC, priority 2014, published 2017).
Values after ≈ are worked out from the molar mass of the structure shown. Like-named read-outs stand apart in the source and are kept apart here. Marks after values point to notes of the source that are not given here.

Legend:
[1] = Corn seed treatment field trials (yield); assay type: in vivo; conditions: seed treatment in corn, multi-location replicated field trials
Experimental: (§1) Tioxazafen was combined with commercial fungicides and insecticides in a tank slurry mix with colorant, polymer, and water at the recommended rates and allowed to mix thoroughly. Using a Gustafson continuous batch seed coater the seed batch was loaded, the treatment slurry was injected and the mixture was allowed to tumble for 35-40 seconds before being ejected into a paper storage bag.
(§2) Predictive nematode sampling was conducted prior to field trial implementation to ensure appropriate levels of nematode pressure. Trial areas were divided into 2 acre sections based upon soil type, crop history, tillage, drainage, fertilization and other agronomic factors. […] Sub-samples (˜1 pint of soil) were taken from each composite sample and placed in a plastic bag, with appropriate handling to ensure viability of nematodes, and sent to a lab for nematode quantification. […]
(§3) Quantitative in-season nematode sampling using root and soil samples was conducted eight weeks after planting for corn and soy trials. […] Samples were sent to a lab for nematode quantification.
(§4) Yield data was collected using commercially available harvesting equipment to harvest each plot. The data were calculated to represent bushels per acre by taking the grain weight over the square footage of each plot and adjusting to 15% moisture.

[2] = Soy seed treatment field trials (yield); assay type: in vivo; conditions: seed treatment in soy, multi-location replicated field trials
Experimental: as §1, §2, §3, §4

root knot nematode = assay: Pre-plant incorporated (PPI) greenhouse test of root knot nematode on cucumber plants; assay type: in vivo; conditions: fourteen day pre-plant incorporated; for pest or weed control at 4000 g/ha: 336 h, 4 kg/ha, read-out: percent control (galling reduction), 4 kg/ha rate; for pest or weed control at 8000 g/ha: 8 ka/ha, read-out: percent control (galling reduction), 8 ka/ha rate
Text: The PPI test examines the effect of pre-incorporation of compounds in soil and longer aging to simulate in furrow methods of nematicide application in the field. The PPI test exposes compounds to a higher volume of soil and drying which can result in more severe soil binding. Compounds are also aged for longer periods which can lead to more extensive biotic and abiotic degradation further limiting activity.
The chemically treated soil (sandy soil mix) for all treatment days (e.g., 7 days, 14 days, 21 days) treatments is potted into their appropriate pots. On the same day the 7 day treatment pots are seeded. One week later eggs are applied and 14 days after egg application the test is harvested. The 14 day treatments are planted 7 days after the first planting. The 14 day planting and 7 day inoculation happen on the same day. One week later the 14 day treatments are inoculated with eggs. These are harvested 14 days after the inoculation. The 21 day treatments are planted 14 days after the first planting. The 14 day inoculation and 21 day planting are done on the same day. One week later the 21 day plants are inoculated with eggs. The 7 day treatment is harvested the same day as the 21 day inoculation. Fourteen days after inoculation the 21 day plants are harvested.
For each compound a stock is prepared using 4 mg material in 4 ml of acetone. The soil is mixed by placing 80 ml of field soil and 320 ml of sand in a plastic bag and mixing well. The formulation for treatment is done by adding 2.13 ml (8 kg/ha rate), 1.06 ml (4 kg/ha rate) or 0.53 ml (2 kg/ha rate) to a vial and raising it with 10 ml in 0.05% X100. Soil is then treated by adding the entire 10 ml to the 400 ml of mix in the bag. The treated soil is immediately mixed well in the sealed bag to distribute the compound evenly. Approximately 95 ml is used to fill each 2-inch square pot up to the top with some soil compression and flattening. For each compound and for the control treatments 4 pots are filled. All pots are watered until moist but with no run-out through the bottom.
The PPI test simulates 8, 4 and 2 kg/ha rates incorporated 15 cm deep in the field and is equivalent to the 2, 1 and 0.5 kg/ha drench application rates in the standard 2-inch pot cucumber greenhouse assay.

root knot nematode (RKN) [3] = assay: RKN greenhouse soil assay on cucumber plants; assay type: in vivo; conditions: Acetone formulation (10% acetone in 0.05% Triton X 100), 1 mg/kg
Text: Cucumber seeds are planted in a sandy soil mixture in two inch square plastic pots. When the cotyledons are fully opened and just as the first leaf begins to emerge, usually 7 days after planting, chemistry for the 7 day treatment is applied. One week later the chemistry for the 0 day treatment is applied. Separate plants are used for each application. The plants are generally in the 1-2 leaf stage now. At least four hours after the chemistry application the pots are inoculated with root knot nematode (RKN) eggs. Plants are rated for galling 14 days after the egg inoculation.
(§5) One milligram of chemistry per four pots is equal to one kilogram per hectare of chemical. A standard test uses four replications. For rates above 2 kg/ha, the desired amount of chemical is weighed into a 30 ml vial (example: 8 kg/ha rate =8 mg chemical in 30 ml vial). The chemical is dissolved in 2 ml of appropriate solvent, generally acetone. For rates below 2 kg/ha, 2 milligrams of chemistry is weighed into the vial and dissolved in 2 ml of the solvent. The appropriate amount of chemical concentrate is then pipetted into a separate 30 ml vial and solvent is added to bring the volume to 2 ml (example 0.5 kg/ha=0.5 ml of concentrate+1.5 ml solvent). Each dissolved concentrate is then brought to a total of 20 milliliters using 0.05% Triton X 100 surfactant solution.
(§6) Pots to be treated are moist but not saturated. To each of four pots, five milliliters of the appropriate chemical solution is pipetted to the media surface making sure to avoid contact with the base of the plant. Immediately following chemical application, using a mist nozzle, the pot surface is wetted sufficiently to saturate the pot watering in the chemistry. The chemical application is done in the morning.
(§7) Nematode eggs, either SCN or RKN, are added to distilled water to create a concentration of 1000 vermiform eggs […]. At least four hours after chemical treatment the eggs are applied to the treated pots plus non-treated check plants. A small hole about 1 cm deep is punched into the pot surface. One milliliter of the nematode egg slurry is pipetted into the hole. Immediately afterwards the hole is gently covered. Watering of the test plants is then restricted to only water as needed to prevent wilt for a period of 24 hours. After the 24 hour restricted watering, normal sub-irrigation watering is done for the duration of the test.

[4] = tested on: Heterodera glycines (SCN); assay: Seed treatment test of soybean cyst nematode on soybean; assay type: in vivo; conditions: for pest or weed control at 0.375 mg/g / pest or weed control at 1.5 mg/g: Heterodera glycines, 672 h, read-out: percent cyst reduction relative to control blank treatment
Experimental: (§8) For a given concentration the chemical is dissolved in 500 ul of acetone and one gram of cucumber seed (RKN test) or soybean seed (SCN test) is added (e.g., 20 mg active ingredient in 500 ul acetone plus 1 gram of seed). The seed solutions are agitated until all seeds were thoroughly covered with the chemical solution. The acetone is then allowed to evaporate by air drying the seeds. The seeds are planted in 2-inch pots containing sandy soil and then the pots are inoculated with 1000 Meloidogyne incognita (RKN) or 1000 Heterodera glycines (SCN) eggs per pot three days after planting. Plants are rated for galling 14 days after egg inoculation for RKN or 28 days after egg inoculation for SCN.

root knot nematode (RKN) [5] = assay: RKN greenhouse soil assay on cucumber plants; assay type: in vivo; conditions: Radex emulsifiable concentrate formulation (6.25% active ingredient)
Meloidogyne incognita = assay: Summer field evaluation of pre-plant incorporated compounds on squash; assay type: in vivo; conditions: 4 kg/ha
Experimental: Test plots of 33 cm diameter holes were bored 41 cm deep into clay soil and filled with a mixture of 80% sand and 20% silt loam soil. Technical compound for each treatment was dissolved in 50 ml acetone containing 250 ul of Triton X-100 surfactant. This solution was added to 450 ml water and poured onto 95 liters of sand/soil mixture in a rotating drum mixer. While continuing to rotate the mixing drum 66 grams of chopped, galled, tomato roots was added and thoroughly distributed. The treated soil was sufficient to fill the top 15 cm of each of the 6 replicate plots, thus simulating a PPI treatment. The plots were then watered lightly and a mixture of M. incognita eggs and larvae were injected 5 cm deep at 5 points within the plot (100k eggs/larvae in 10m1 per plot). Three-week old squash (cv. Liberator III) with 1 fully expanded true leaf was planted 4 days after soil treatment, one per plot.

caspase-3 = assay: Caspase-3 activity in H4IIE cells (DEVD-AMC); assay type: cell-based; conditions: rat hepatoma derived H4IIE cells, concentrations up to 300 μM
Experimental: To evaluate whether the compound classes of this invention are able to induce apoptosis, caspase-3 activity was determined after compound exposure in rat hepatoma derived H4IIE cells using a caspase substrate (DEVD, Asp-Glu-Val-Asp) labeled with a fluorescent molecule, 7-Amino-4-methylcoumarin (AMC). Caspase 3 cleaves the tetrapeptide between D and AMC, thus releasing the fluorogenic […] AMC. Following the test article exposure to cells in 96-well plates, medium was aspirated from plates and PBS added to each well. Plates were stored at −80° C. to lyse cells and store samples until further analysis. On the day of analysis, plates were removed from freezer and thawed. Caspase buffer with fluorescent substrate was added to each well and incubated at room temperature for one hour. AMC release was measured in a spectrofluorometer at an excitation wavelength of 360 nm and an emission wavelength of 460 nm. Values are expressed as relative fluorescent units (RFU).

C. elegans = assay: Three day C. elegans well assay; assay type: in vivo; conditions: Caenorhabditis elegans, L1 larvae
How it was run: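 Contact assay in wells: DMSO dilutions (4 ul from 100× stocks at 10 mg/ml) with bacterial feed in M9 buffer plus ampicillin and nystatin. L1 (starvation-arrested) or L4 worms added, shaken at 20° C. Scored at 4, 24, 48 and 72 hours.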

[6] = tested on: soybean cyst nematode (SCN); assay: SCN greenhouse sand assay on soybean plants; assay type: in vivo; conditions: Glycine max, 672 h, test d, read-out: percent control (cyst number reduction) relative to the control blank treatment; for pest or weed control at 100 g/ha: 0.1 kg/ha; for pest or weed control at 250 g/ha: 0.25 kg/ha
Text: Soybeans seeds are planted in 100% sand in two inch square plastic pots. Chemical treatment is done when the soybeans show the first trifoliate beginning to emerge about 10 to 12 days after planting. At least four hours after chemical application the nematode soybean cyst nematode (SCN) eggs are applied and 28 days after the egg inoculation the test is harvested.
as §5, §6, §7

[7] = mice; cited from earlier work
[8] = tested on: Meloidogyne incognita (RKN); assay: Seed treatment test of root knot nematode on cucumber; assay type: in vivo; conditions: 10 mg ai/gram seed (abamectin positive control), cucumber seeds
Experimental: as §8

[9] = 24 h, one day of exposure, read-out: EC50 L1 1D
[10] = 48 h, two days of exposure, read-out: EC50 L1 2D
[11] = 72 h, three days of exposure, read-out: EC50 L1 3D

For `c1ccc(-c2noc(-c3cccs3)n2)cc1` [Tioxazafen, 3-phenyl-5-(2-thienyl)-1,2,4-oxadiazole], the effect on yield [1] was “yield enhancement” and the effect on yield [2] was “yield enhancement”.
For `Fc1ccc(-c2noc(-c3cccs3)n2)cc1` [compound 5479], the pest or weed control at 4000 g/ha (root knot nematode; test a) was 89%, the “percent control (galling reduction), 2 kg/ha rate” value (root knot nematode; test a) was 71^a percent and the pest or weed control at 8000 g/ha (root knot nematode; test a) was 100%. For the same compound, the “percent control (galling reduction), Acetone 1 mg/kg” value (root knot nematode (RKN) [3]) was 91%, the pest or weed control at 0.375 mg/g ([4]; 0.375 mg ai/gram seed, test a) was 67% and the pest or weed control at 0.375 mg/g ([4]; 0.375 mg ai/gram seed, test b) was 69%. For the same compound, the pest or weed control at 1.5 mg/g ([4]; 1.5 mg ai/gram seed, test a) was 88%, the pest or weed control at 1.5 mg/g ([4]; 1.5 mg ai/gram seed, test b) was 83% and the “percent control (galling reduction), Radex 1 mg/kg” value (root knot nematode (RKN) [5]) was 96%.
For `Clc1ccc(-c2noc(-c3ccco3)n2)cc1` [compound 5523], the pest or weed control at 4000 g/ha (root knot nematode; test a) was 87%, the “percent control (galling reduction), 2 kg/ha rate” value (root knot nematode; test a) was 59^a percent and the pest or weed control at 8000 g/ha (root knot nematode; test a) was 99%. For the same compound, the “percent control (galling reduction), Acetone 1 mg/kg” value (root knot nematode (RKN) [3]) was 86%, the “percent control (galling reduction), Radex 1 mg/kg” value (root knot nematode (RKN) [5]) was 86% and the “control of M. incognita by PPI application” value (Meloidogyne incognita) was “significant control”.
For `Clc1ccc(-c2noc(-c3cccs3)n2)cc1` [compound 5527], the pest or weed control at 4000 g/ha (root knot nematode; test a) was 90%, the “percent control (galling reduction), 2 kg/ha rate” value (root knot nematode; test a) was 57^a percent and the pest or weed control at 8000 g/ha (root knot nematode; test a) was 96%. The “percent control (galling reduction), Acetone 1 mg/kg” value (root knot nematode (RKN) [3]) was 91%, the pest or weed control at 0.375 mg/g ([4]; 0.375 mg ai/gram seed, test a) was 43% and the pest or weed control at 1.5 mg/g ([4]; 1.5 mg ai/gram seed, test a) was 71%. For the same compound, the “percent control (galling reduction), Radex 1 mg/kg” value (root knot nematode (RKN) [5]) was 80%.
With `Fc1cc(Cl)ccc1-c1cnc(-c2cccs2)o1` [compound 5915] the “induction of caspase-3” value (caspase-3) was “no induction of caspase-3”, the EC50 (C. elegans; [9]) was 0.4 µg/mL (≈ 1.43 µM) and the EC50 (C. elegans; [10]) was 0.4 µg/mL (≈ 1.43 µM). It also gave an EC50 (C. elegans; [11]) of 0.4 µg/mL (≈ 1.43 µM), a pest or weed control at 4000 g/ha (root knot nematode; test b) of 70% and a pest or weed control at 8000 g/ha (root knot nematode; test b) of 99%. It also gave a pest or weed control at 100 g/ha [6] of 44% and a pest or weed control at 250 g/ha [6] of 74%.
For `Cc1cc(Cl)ccc1-c1nsc(-c2ccco2)n1` [compound 5938], the “induction of caspase-3” value (caspase-3) was “no induction of caspase-3”, the EC50 (C. elegans; [9]) was 1.6 µg/mL (≈ 5.78 µM) and the EC50 (C. elegans; [10]) was 1.6 µg/mL (≈ 5.78 µM). The EC50 (C. elegans; [11]) was 1.6 µg/mL (≈ 5.78 µM), the pest or weed control at 4000 g/ha (root knot nematode; test b) was 90% and the pest or weed control at 8000 g/ha (root knot nematode; test b) was 100%. The pest or weed control at 100 g/ha [6] was 60%, the pest or weed control at 250 g/ha [6] was 89% and the “control of M. incognita by PPI application” value (Meloidogyne incognita) was “excellent control”.
In the case of Abamectin [reference compound], the “percent cyst reduction relative to control blank treatment” value ([4]; 0.375 mg ai/gram seed, test a) is listed as −14^a percent, the “percent cyst reduction relative to control blank treatment” value ([4]; 1.5 mg ai/gram seed, test a) is listed as −24^a percent and the “oral LD50” value [7] is listed as 13.6 mg/kg. For the same compound, the “percent control (galling reduction) relative to the control blank treatment” value [8] was 84%.
